Two compounds from ChEMBL document CHEMBL1129577, “Identification of a novel oxazolidinone (U-100480) with potent antimycobacterial activity” (1996) can be followed below.

Test [1] concerns Mycobacterium tuberculosis. Briefly: In vitro anti-mycobacterial activity against multiple resistant strains of Mycobacterium tuberculosis at 0.125 ug/mL. Format: functional.
In test [2] the test system is Mycobacterium tuberculosis. Briefly: In vitro anti-mycobacterial activity against multiple resistant strains of Mycobacterium tuberculosis at 0.50 ug/mL. Format: functional.

`CC(=O)NC[C@H]1CN(c2ccc(N3CCSCC3)c(F)c2)C(=O)O1` [SUTEZOLID]: the No. of strains in test [1] stood at 3; in test [2] it was 2.
In turn, `CC(=O)NC[C@H]1CN(c2ccc(N3CCS(=O)(=O)CC3)c(F)c2)C(=O)O1` registered a No. of strains in test [2] of 4.
